How the values were obtained:
[1] = EDTA co-administered; cited from earlier work
[2] = Pulmonary absorption of human insulin co-administered intratracheally with P2Y receptor agonists to anesthetized rabbits (plasma insulin by radioimmunoassay); assay type: in vivo, New Zealand white rabbits; settings: for Effect of the P2Y agonist on t1/2, Cmax and F of insulin administered to the lungs: co-administered with insulin to rabbit lungs, summary in words; for Cmax of insulin / F (bioavailable fraction) of insulin / t1/2 of insulin: rabbit, mean±SD, n=4
Experimental: Briefly, New Zealand white rabbits were anesthetized with Hypnovel (Roche, Welwyn Garden City, UK), 0.3 mg/kg i.v. via cannula in the ear, and Hypnorrn (Janssen Animal Health, Grove, Oxford, UK), 0.1 mg/kg via intramuscular injection. Once intubated with a polyethylene endotracheal tube (i.d. 4 mm, o.d. 5 mm; Portex, UK) coated with a layer of xylocalne gel (Astra Pharmaceuticals, Kings Langley, UK), a second, smaller polyethylene dosing tube was inserted inside the endotracheal tube to the point of the bifurcation of the trachea.

[3] = insulin 10 U/kg intratracheal with Up4U 0.2 mg (2.0 mg/mL)
[4] = insulin 10 U/kg intratracheal with Up4U 0.62 mg (6.2 mg/mL)

Cmax of insulin ([2]; insulin 10 U/kg intratracheal with UTP 0.34 mg (3.4 mg/mL)) | Cmax of insulin ([2]; insulin 10 U/kg intratracheal with UTP 1.5 mg (15 mg/mL)) | Cmax of insulin [2, 3] | F (bioavailable fraction) of insulin [2, 3] | t1/2 of insulin [2, 3] | Cmax of insulin [2, 4] | F (bioavailable fraction) of insulin [2, 4] | t1/2 of insulin [2, 4] | Compound | Effect on uptake of calcitonin following intratracheal administration to the lungs [1] | Effect of the P2Y agonist on t1/2, Cmax and F of insulin administered to the lungs [2]
– | – | – | – | – | – | – | – | O=C(O)CN(CCN(CC(=O)O)CC(=O)O)CC(=O)O [EDTA] | did increase | –
828 ± 42.4 μU/mL | 1515 ± 297 μU/mL | – | – | – | – | – | – | O=c1ccn([C@@H]2O[C@H](COP(=O)(O)OP(=O)(O)OP(=O)(O)O)[C@@H](O)[C@H]2O)c(=O)[nH]1 [UTP, uridine 5′-triphosphate] | – | increase the half life (t1/2), maximal plasma concentration (Cmax) and the overall bioavailable fraction (F) of insulin
– | – | 531 ± 89.5 μU/mL | 8.07 ± 3.40% | 1.33 ± 0.7102 h | 655 ± 46.17 μU/mL | 5.47 ± 1.03% | 0.798 ± 0.0372 h | O=c1ccn([C@@H]2O[C@H](COP(=O)(O)OP(=O)(O)OP(=O)(O)OP(=O)(O)OC[C@H]3O[C@@H](n4ccc(=O)[nH]c4=O)[C@H](O)[C@@H]3O)[C@@H](O)[C@H]2O)c(=O)[nH]1 [Up4U, P^1,P^4-di(uridine 5′-)tetraphosphate] | – | increase the half life (t1/2), maximal plasma concentration (Cmax) and the overall bioavailable fraction (F) of insulin

Source: patent publication US20090004101A1, “Method and Means for Enhanced Pulmonary Drug Delivery” (UNIVERSITY COLLEGE CARDIFF CONSULTANTS LIMITED, priority 2004, published 2009)
